Results: ChEMBL document CHEMBL4387716, “Discovery of trans-3-(pyridin-3-yl)acrylamide-derived sulfamides as potent nicotinamide phosphoribosyltransferase (NAMPT) inhibitors for the potential treatment of cancer” (Bioorg Med Chem Lett, 2019)

Assays:
K562 = test: Antiproliferative activity against human K562 cells assessed as inhibition of cell growth after 72 hrs by CCK-8 assay; format: functional, cell-based; details: K562, 72 h
Huh-7 = test: Antiproliferative activity against human HuH7 cells assessed as inhibition of cell growth after 72 hrs by CCK-8 assay; format: functional, cell-based; details: Huh-7, 72 h
DU-145 = test: Antiproliferative activity against human DU145 cells assessed as inhibition of cell growth after 72 hrs by CCK-8 assay; format: functional, cell-based; details: DU-145, 72 h
HeLa = test: Antiproliferative activity against human HeLa cells assessed as inhibition of cell growth after 72 hrs by CCK-8 assay; format: functional, cell-based
NCI-H1975 = test: Antiproliferative activity against human NCI-H1975 cells harboring EGFR L858R/T790M mutation assessed as inhibition of cell growth after 72 hrs by CCK-8 assay; format: functional, cell-based; details: NCI-H1975, 72 h
[1] = target: Nicotinamide phosphoribosyltransferase (Homo sapiens, UniProt P43490); test: Inhibition of recombinant NAMPT (unknown origin) using NAM and PRPP as substrates incubated for 60 mins in presence of NMNAT1 measured at 5 mins interval for 30 mins by WST1 assay
MCF7 = test: Antiproliferative activity against human MCF7 cells assessed as inhibition of cell growth after 72 hrs by CCK-8 assay; format: functional, cell-based; details: MCF7, 72 h

Nicotinamide phosphoribosyltransferase, sequence (P43490 whole entry): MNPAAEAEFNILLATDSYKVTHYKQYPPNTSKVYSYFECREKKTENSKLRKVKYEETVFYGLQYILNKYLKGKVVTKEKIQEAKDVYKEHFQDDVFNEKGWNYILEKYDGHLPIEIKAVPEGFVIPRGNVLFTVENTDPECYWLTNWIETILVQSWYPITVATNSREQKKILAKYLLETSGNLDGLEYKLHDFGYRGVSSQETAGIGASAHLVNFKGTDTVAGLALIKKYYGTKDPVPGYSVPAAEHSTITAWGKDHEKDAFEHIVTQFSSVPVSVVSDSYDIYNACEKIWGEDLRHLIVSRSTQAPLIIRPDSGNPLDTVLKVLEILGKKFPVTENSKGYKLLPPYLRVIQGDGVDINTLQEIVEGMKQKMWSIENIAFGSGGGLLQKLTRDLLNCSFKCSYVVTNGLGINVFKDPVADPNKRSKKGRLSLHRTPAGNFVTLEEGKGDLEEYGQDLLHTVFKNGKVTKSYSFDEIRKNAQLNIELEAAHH

| IC50 (K562) [nM] | IC50 (Huh-7) [nM] | IC50 (DU-145) [nM] | IC50 (HeLa) [nM] | IC50 (NCI-H1975) [nM] | IC50 [1] [nM] | IC50 (MCF7) [nM] | Structure (SMILES) |
| --- | --- | --- | --- | --- | --- | --- | --- |
| 56.5 | 1220 | 438 | 223 | 330 | 16.4 | 37.6 | O=C(/C=C/c1cccnc1)NCCCCCCCc1ccc(S(=O)(=O)Nc2ccccc2)cc1 |
| 2.98 | 6.92 | 34.4 | 38.8 | 17.1 | 9.78 | 1.97 | Cc1ccc(NS(=O)(=O)c2cccc(CCCCCCNC(=O)/C=C/c3cccnc3)c2)cc1 |
| 3.89 | 34.6 | 40.1 | 132 | 33.4 | 31.5 | 3.64 | CCc1ccc(NS(=O)(=O)c2cccc(CCCCCCNC(=O)/C=C/c3cccnc3)c2)cc1 |
| 44.9 | 164 | 1410 | 1450 | 175 | 24.5 | 67.8 | O=C(/C=C/c1cccnc1)NCCCCCCc1cccc(S(=O)(=O)Nc2ccc(C(F)(F)F)cc2)c1 |
| 0.456 to 0.46 | 0.525 to 0.53 | 2.9 | 2.34 | 2.24 | 5.08 | 0.226 to 0.23 | Cc1ccccc1NS(=O)(=O)c1cccc(CCCCCCNC(=O)/C=C/c2cccnc2)c1 |
| 61.1 | 138 | 429 | 598 | 316 | 31.3 | 42.6 | O=C(/C=C/c1cccnc1)NCCCCCCCc1cccc(S(=O)(=O)Nc2ccccc2)c1 |
| 5.12 | 32.7 | 50.9 | 262 | 25.6 | 13.1 | 3.84 | O=C(/C=C/c1cccnc1)NCCCCCCc1cccc(S(=O)(=O)Nc2ccc(Oc3ccccc3)cc2)c1 |
| 0.88 | 2.82 | 6.73 | 30.4 | 6.37 | 10.5 | 0.63 | O=C(/C=C/c1cccnc1)NCCCCCCc1cccc(S(=O)(=O)Nc2ccccc2)c1 |
| 0.93 | 4.28 | 10.6 | 99.9 | 1.34 | 9.2 | 0.91 | O=C(/C=C/c1cccnc1)NCCCCCCc1cccc(S(=O)(=O)Nc2ccc(F)cc2)c1 |

More lines, now with the values behind:

| Structure (SMILES) | IC50 (K562) [nM] | IC50 (Huh-7) [nM] | IC50 (DU-145) [nM] | IC50 (HeLa) [nM] | IC50 (NCI-H1975) [nM] | IC50 [1] [nM] | IC50 (MCF7) [nM] |
| --- | --- | --- | --- | --- | --- | --- | --- |
| O=C(/C=C/c1cccnc1)NCCCCCCc1ccc(S(=O)(=O)Nc2ccccc2)cc1 | 48.5 | 112 | 328 | 377 | 239 | 14.4 | 36 |
| O=C(/C=C/c1cccnc1)NCCCCCCc1cccc(S(=O)(=O)Nc2ccc(F)c(Cl)c2)c1 | 5.31 | 39.4 | 150 | 385 | 25 | 9.7 | 6.3 |
| O=C(/C=C/c1cccnc1)NCCCc1cccc(S(=O)(=O)Nc2ccccc2)c1 | 86.8 | 384 | 165 | 115 | 261 | 235 | 142 |
| Cc1cccc(NS(=O)(=O)c2cccc(CCCCCCNC(=O)/C=C/c3cccnc3)c2)c1 | 4.78 | 13.2 | 41.7 | 65.8 | 40.7 | 12.3 | 4 |
| O=C(/C=C/c1cccnc1)NCCCCCc1cccc(S(=O)(=O)Nc2ccccc2)c1 | 16.2 | 41.1 | 140 | 105 | 146 | 16.5 | 12.5 |
| O=C(/C=C/c1cccnc1)NCCCCCc1ccc(S(=O)(=O)Nc2ccccc2)cc1 | 146 | 408 | 581 | 333 | 778 | 28.4 | 95.7 |
| O=C(/C=C/c1cccnc1)NCCCCCCc1cccc(S(=O)(=O)Nc2ccc(Cl)cc2)c1 | 6.41 | 24.1 | 84.4 | 170 | 33.3 | 10.8 | 5.94 |
| CC(C)(C)c1ccc(NS(=O)(=O)c2cccc(CCCCCCNC(=O)/C=C/c3cccnc3)c2)cc1 | 24.7 | 163 | 281 | 1520 | 157 | 9.47 | 26.3 |
| O=C(/C=C/c1cccnc1)NCCCCc1ccc(S(=O)(=O)Nc2ccccc2)cc1 | 9.56 | 24.2 | 47.9 | 184 | 63.6 | 17.8 | 5.03 |
| O=C(/C=C/c1cccnc1)NCCCc1ccc(S(=O)(=O)Nc2ccccc2)cc1 | 4900 | > 10000 | > 10000 | > 10000 | > 10000 | 5920 | 4120 |
| Cc1ccc(C)c(NS(=O)(=O)c2cccc(CCCCCCNC(=O)/C=C/c3cccnc3)c2)c1 | 0.84 | 2.58 | 7.48 | 22.6 | 4.88 | 11.6 | 0.6 |
| O=C(/C=C/c1cccnc1)NCCCCC1CCN(C(=O)c2ccccc2)CC1 [DAPORINAD] | 0.96 | 1.05 | 5.12 | 3.75 | 4.76 | – | 0.41 |
